The values below come from US11040035B2, “3-oxo-2,6-diphenyl-2,3-dihydropyridazine-4-carboxamides” (BAYER PHARMA AKTIENGESELLSCHAFT, priority 2016, dated 2021).

In assay [1] the target is T1, AHR (Homo sapiens, UniProt P35869).
T1 sequence (P35869 11-848): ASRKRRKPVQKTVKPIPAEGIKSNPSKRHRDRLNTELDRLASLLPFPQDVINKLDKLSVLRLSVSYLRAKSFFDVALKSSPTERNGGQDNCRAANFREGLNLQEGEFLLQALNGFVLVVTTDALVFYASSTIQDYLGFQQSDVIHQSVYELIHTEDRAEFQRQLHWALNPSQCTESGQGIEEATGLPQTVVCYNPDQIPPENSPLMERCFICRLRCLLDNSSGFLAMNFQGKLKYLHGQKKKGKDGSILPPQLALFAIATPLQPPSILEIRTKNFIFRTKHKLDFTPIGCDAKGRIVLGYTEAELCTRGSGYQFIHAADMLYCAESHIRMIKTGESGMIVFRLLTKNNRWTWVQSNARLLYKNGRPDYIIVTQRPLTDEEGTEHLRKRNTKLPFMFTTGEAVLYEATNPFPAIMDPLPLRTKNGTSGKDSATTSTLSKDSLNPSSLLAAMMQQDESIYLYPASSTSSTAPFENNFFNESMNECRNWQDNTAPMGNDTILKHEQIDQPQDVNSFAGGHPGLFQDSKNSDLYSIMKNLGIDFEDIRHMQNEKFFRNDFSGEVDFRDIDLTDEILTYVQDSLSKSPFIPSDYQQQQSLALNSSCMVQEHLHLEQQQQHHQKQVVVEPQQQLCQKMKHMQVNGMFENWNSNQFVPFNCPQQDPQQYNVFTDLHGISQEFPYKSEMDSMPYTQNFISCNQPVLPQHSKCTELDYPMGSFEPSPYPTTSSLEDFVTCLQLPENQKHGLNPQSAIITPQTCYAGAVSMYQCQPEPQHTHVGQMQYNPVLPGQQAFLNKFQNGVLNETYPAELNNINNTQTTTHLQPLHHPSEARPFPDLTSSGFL
Put plainly: In vitro assay 2: agonism in human cell line (transactivation assay). As to conditions: Assay 2: AHR-luc Hum Agonism IC50 [M], no kynurenic acid, 20 hours, firefly luciferase.

The test system of assay [2] is AHR-regulated gene CYP1A1. Put plainly: In vitro assay 3: AHR-regulated CYP1A1 expression in human cell line (U937, qPCR). As to conditions: Homo sapiens, U-937, 6 h, read-out: Assay 3: Hum CYP1A1 Antagonism IC50 [M], U937 cells, 200 μM KA, 6 hours, qPCR. A general note: Real-time PCR tracks product formation cycle by cycle.
Procedure: In Vitro Assay 3: AHR-Regulated CYP1A1 Expression in Human Cell Line
To assess the AHR inhibitory activity of the substances described in this application, the ability thereof to antagonise ligand-induced AHR gene regulation in a dose-dependent manner was quantified. For this purpose, quantitative PCR analysis was used to determine expression of the AHR-regulated gene CYP1A1 in a human monocytic U937 cell line upon stimulation with 200 μM KA in the presence and absence of AHR inhibitor. U937 cells were sown at a concentration of 2×10^5 cells/well in 100 ul of growth medium (RPMI 1640, 20% FCS) in 96-well microtitre plates. CYP1A1 expression was induced with 200 μM KA (positive control) in the presence or absence of the substances for 6 hours. Human U937 cells were typically incubated with eight different concentrations of the substances (1 nM, 3 nM, 10 nM, 30 nM, 100 nM, 300 nM, 1 μM and 3 μM) and analyzed in duplicate on the same microtitre plate. After stimulation, cells were lysed with Nucleic Acid Lysis Solution (#4305895, Applied Biosystems) and RNA was isolated using the 6100 Nucleic Acid Preparation Station (Applied Biosystems) and reverse-transcribed to cDNA using SuperScript VILO cDNA synthesis kit (#11754-250, Invitrogen). Unstimulated cells were used as the negative control. Taqman probes for human CYP1A1 (Hs01054797_g1) and human HPRT (Hs02800695_m1) were used to analyze fold expression of CYP1A1 of HPRT. Quantitation was performed on a Taqman SDS7900HT.
For assay [3], the target named is T1, AHR. The assay is described as follows: In vitro assay 1: antagonism in human cell line (transactivation assay, kynurenic acid prestimulated). As to conditions: Assay 1: AHR-luc Hum Antagonism IC50 [M], 150 μM kynurenic acid, 20 hours, firefly luciferase.

The IC50 is the concentration at which inhibition is half-maximal.

On to `CC(C)[C@@H](CO)NC(=O)c1cc(-c2ccc(Cl)cc2)nn(-c2cccc(C#N)c2)c1=O` [Example 361, 6-(4-chlorophenyl)-2-(3-cyanophenyl)-N-[(2S)-1-hydroxy-3-methylbutan-2-yl]-3-oxo-2,3-dihydropyridazine-4-carboxamide], for which the figures for the IC50 (at AHR [1]; in assay [2]; against AHR [3]) were over 2e-05 M, 2.96e-07 M and 1.66e-07 M, respectively.
As to `O=C(N[C@H]1CCC[C@@H]1O)c1cc(-c2ccc(Cl)cc2)nn(-c2cccc(F)c2)c1=O` (relative stereo) [Example 123, 6-(4-Chlorophenyl)-2-(3-fluorophenyl)-N-(trans-2-hydroxycyclopentyl)-3-oxo-2,3-dihydropyridazine-4-carboxamide], the values for the IC50 (at AHR [1]; in assay [2]; at AHR [3]) were over 2e-05 M, 9.77e-08 M and 3.63e-08 M, respectively.
The like results for `C[C@H](NC(=O)c1cc(-c2ccc(Cl)cc2)nn(-c2cccc(F)c2)c1=O)C(C)(C)O` [Example 392, 6-(4-chlorophenyl)-2-(3-fluorophenyl)-N-[(2S)-3-hydroxy-3-methylbutan-2-yl]-3-oxo-2,3-dihydropyridazine-4-carboxamide] were, in that order, over 2e-05 M, 5.7e-08 M and 2.6e-08 M.
The like results for `O=C(N[C@H]1COC[C@@H]1O)c1cc(-c2ccc(Cl)cc2)nn(-c2cccc(F)c2)c1=O` (single isomer, unassigned) [Example 135, 6-(4-Chlorophenyl)-2-(3-fluorophenyl)-N-(trans-4-hydroxytetrahydrofuran-3-yl)-3-oxo-2,3-dihydropyridazine-4-carboxamide] were, in that order, over 2e-05 M, 1.32e-07 M and 1.41e-07 M.
The like results for `CC(C)[C@@H](CO)NC(=O)c1cc(-c2ccc(N(C)C)c(Cl)c2)nn(-c2cccc(F)c2)c1=O` [Example 375, 6-[3-chloro-4-(dimethylamino)phenyl]-2-(3-fluorophenyl)-N-[(2S)-1-hydroxy-3-methylbutan-2-yl]-3-oxo-2,3-dihydropyridazine-4-carboxamide] were, in that order, over 2e-05 M, 5.73e-08 M and 3.05e-08 M.
Turning to `O=C(NC(CO)C1CC1)c1cc(-c2ccc(C(F)(F)F)cc2)nn(-c2cccc(F)c2)c1=O` (racemic) [Example 267, N-[(1RS)-1-Cyclopropyl-2-hydroxyethyl]-2-(3-fluorophenyl)-3-oxo-6-[4-(trifluoromethyl)phenyl]-2,3-dihydropyridazine-4-carboxamide], the IC50 against AHR [1] is over 2e-05 M; in assay [2], 1.05e-08 M; at AHR [3] it was 2.9e-08 M.
The like results for `COc1ccc(-c2cc(C(=O)N[C@@H](C)[C@H](C)O)c(=O)n(-c3cccc(F)c3)n2)cc1` (relative stereo) [Example 116, rel-2-(3-Fluorophenyl)-N-[(2S,3S)-3-hydroxybutan-2-yl]-6-(4-methoxyphenyl)-3-oxo-2,3-dihydropyridazine-4-carboxamide] were, in that order, over 2e-05 M, 9.69e-08 M and 2.9e-08 M.
As for `C[C@H](NC(=O)c1cc(-c2ccc(OC(F)(F)F)cc2)nn(-c2cccc(F)c2)c1=O)C(C)(C)O` [Example 380, 2-(3-fluorophenyl)-N-[(2S)-3-hydroxy-3-methylbutan-2-yl]-3-oxo-6-[4-(trifluoromethoxy)phenyl]-2,3-dihydropyridazine-4-carboxamide], the IC50 on AHR [1] was over 0.0001 M; in assay [2], 6.3e-08 M; on AHR [3] it was 2.8e-08 M.
As for `O=C(N[C@@H]1CCC[C@@H]1O)c1cc(-c2ccc(Cl)cc2)nn(-c2cccc(F)c2)c1=O` (relative stereo) [Example 109, 6-(4-Chlorophenyl)-2-(3-fluorophenyl)-N-(cis-2-hydroxycyclopentyl)-3-oxo-2,3-dihydropyridazine-4-carboxamide], the values for the IC50 (against AHR [1]; in assay [2]) were over 2e-05 M and 3.61e-08 M, respectively.
Take `Cc1ccc(-c2cc(C(=O)N[C@@H](C)CO)c(=O)n(-c3cccc(F)c3)n2)cc1C` [Example 89, 6-(3,4-dimethylphenyl)-2-(3-fluorophenyl)-N-[(2S)-1-hydroxypropan-2-yl]-3-oxo-2,3-dihydropyridazine-4-carboxamide]: the IC50 turned out to be 1.88e-07 M in assay [2] and 1.15e-07 M against AHR [3].
The like results for `CC[C@@H](CO)NC(=O)c1cc(-c2ccc(Cl)cc2)nn(-c2cccc(F)c2)c1=O` [Example 21, 6-(4-Chlorophenyl)-2-(3-fluorophenyl)-N-[(2S)-1-hydroxybutan-2-yl]-3-oxo-2,3-dihydropyridazine-4-carboxamide] were, in that order, 3.54e-08 M and 1.89e-08 M.
The like results for `Cc1ccc(-c2cc(C(=O)NC(C)CO)c(=O)n(-c3cccc(F)c3)n2)cc1` (centres unmarked) [Example 7, 2-(3-Fluorophenyl)-N-(1-hydroxypropan-2-yl)-6-(4-methylphenyl)-3-oxo-2,3-dihydropyridazine-4-carboxamide] were, in that order, 1.23e-07 M and 6.4e-08 M.
`Cc1ccc(-c2cc(C(=O)N[C@@H](CO)C(C)C)c(=O)n(-c3cccc(F)c3)n2)cc1` [Example 3, 2-(3-Fluorophenyl)-N-[(2R)-1-hydroxy-3-methylbutan-2-yl]-6-(4-methylphenyl)-3-oxo-2,3-dihydropyridazine-4-carboxamide]: the values for the IC50 (in assay [2]; against AHR [3]) were 1.31e-07 M and 3.03e-07 M, respectively.
The like results for `Cc1ccc(-c2cc(C(=O)N[C@H](CO)C(C)C)c(=O)n(-c3cccc(F)c3)n2)cc1C` [Example 83, 6-(3,4-dimethylphenyl)-2-(3-fluorophenyl)-N-[(2S)-1-hydroxy-3-methylbutan-2-yl]-3oxo-2,3-dihydropyridazine-4-carboxamide] were, in that order, 2.39e-08 M and 3.6e-08 M.
The like results for `Cc1ccc(-c2cc(C(=O)NC(CO)C(C)C)c(=O)n(-c3ccccc3)n2)cc1` (centres unmarked) [Example 70, N-(1-hydroxy-3-methylbutan-2-yl)-6-(4-methylphenyl)-3-oxo-2-phenyl-2,3-dihydropyridazine-4-carboxamide] were, in that order, 1.26e-07 M and 9.22e-08 M.
For `CC[C@@H](CO)NC(=O)c1cc(-c2ccc(C)c(C)c2)nn(-c2cccc(F)c2)c1=O` [Example 86, 6-(3,4-dimethylphenyl)-2-(3-fluorophenyl)-N-[(2S)-1-hydroxybutan-2-yl]-3-oxo-2,3-dihydropyridazine-4-carboxamide], the figures for the IC50 (in assay [2]; on AHR [3]) were 4.83e-08 M and 4.55e-08 M, respectively.
The like results for `Cc1ccc(-c2cc(C(=O)NC(CO)C(C)C)c(=O)n(-c3cccc(F)c3)n2)cc1` (centres unmarked) [Example 1, 2-(3-Fluorophenyl)-N-(1-hydroxy-3-methylbutan-2-yl)-6-(4-methylphenyl)-3-oxo-2,3-dihydropyridazine-4-carboxamide] were, in that order, 3.1e-08 M and 2.98e-08 M.
Turning to `O=C(NCC(O)C(F)(F)F)c1cc(-c2ccc(Cl)c(Cl)c2)nn(-c2cccc(F)c2)c1=O` (centres unmarked) [Example 302, 6-(3,4-Dichlorophenyl)-2-(3-fluorophenyl)-3-oxo-N-(3,3,3-trifluoro-2-hydroxypropyl)-2,3-dihydropyridazine-4-carboxamide], the IC50 at AHR [1] is over 2e-05 M; at AHR [3], 2.29e-07 M.
The like results for `COCC(O)CNC(=O)c1cc(-c2ccc(C)cc2)nn(-c2cccc(F)c2)c1=O` (centres unmarked) [Example 16, 2-(3-Fluorophenyl)-N-(2-hydroxy-3-methoxypropyl)-6-(4-methylphenyl)-3-oxo-2,3-dihydropyridazine-4-carboxamide] were, in that order, over 2e-05 M and 1.74e-07 M.
The like results for `O=C(NC[C@@H](O)C(F)(F)F)c1cc(-c2ccc(Cl)c(Cl)c2)nn(-c2cccc(F)c2)c1=O` (single isomer, unassigned) [Example 299, 6-(3,4-Dichlorophenyl)-2-(3-fluorophenyl)-3-oxo-N-(3,3,3-trifluoro-2-hydroxypropyl)-2,3-dihydropyridazine-4-carboxamide] were, in that order, over 2e-05 M and 7.42e-07 M.
The like results for `O=C(NCC(O)C(F)(F)F)c1cc(-c2ccc(Cl)cc2)nn(-c2ccccc2)c1=O` (centres unmarked) [Example 76, 6-(4-chlorophenyl)-3-oxo-2-phenyl-N-(3,3,3-trifluoro-2-hydroxypropyl)-2,3-dihydropyridazine-4-carboxamide] were, in that order, over 2e-05 M and 9.37e-08 M.
